Experimental data published in ChEMBL document CHEMBL5032503 (J Med Chem, 2021).
Blank lines part the entries; values can stand above or below the compound they belong to. Active and inactive are the calls of the source. The rule behind the calls is not given here.

How the values were obtained:
[1] = target: T1, Nuclear receptor subfamily 2 group E member 1 (Homo sapiens, UniProt Q9Y466); assay: Agonist activity at in human TLX LBD expressed in human HEK293T cells coexpressing Gal4-VP 16 assessed as remaining activity measured after 14 hrs by luciferase reporter gene assay relative to control; assay type: cell-based; conditions: filed as agonist
T1 sequence (Q9Y466 whole entry, the tested form may be a part): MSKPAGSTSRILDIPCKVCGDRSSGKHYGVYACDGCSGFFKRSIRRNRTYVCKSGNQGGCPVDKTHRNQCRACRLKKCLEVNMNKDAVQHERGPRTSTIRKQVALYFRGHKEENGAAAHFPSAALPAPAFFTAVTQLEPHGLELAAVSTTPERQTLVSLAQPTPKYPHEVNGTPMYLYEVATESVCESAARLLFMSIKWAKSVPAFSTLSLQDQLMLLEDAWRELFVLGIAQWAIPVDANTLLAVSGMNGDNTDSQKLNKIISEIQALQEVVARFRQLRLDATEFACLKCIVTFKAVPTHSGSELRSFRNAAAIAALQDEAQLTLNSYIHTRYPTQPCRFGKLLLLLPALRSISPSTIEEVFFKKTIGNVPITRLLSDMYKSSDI

[2] = target: T1, Nuclear receptor subfamily 2 group E member 1; assay: Agonist activity at in human TLX LBD expressed in human HEK293T cells coexpressing Gal4-VP 16 assessed as increase in reporter activity measured after 14 hrs by luciferase reporter gene assay relative to control; assay type: cell-based
T98G [3] = assay: Induction of apoptosis in human T98G cells assessed as viable cells at 100 nM measured after 72 hrs by propidium iodide staining based flow cytometry; assay type: functional, cell-based
T98G [4] = assay: Cytotoxicity against human T98G cells assessed as cell viability by WST-1 assay; assay type: functional, cell-based
T98G [5] = assay: Inhibition of cell migration in human T98G cells at 75 uM incubated for 24 hrs by crystal violet staining based by Boyden chamber method; assay type: functional
[6] = target: T1, Nuclear receptor subfamily 2 group E member 1; assay: Agonist activity at in human TLX LBD expressed in human HEK293T cells coexpressing Gal4-VP 16 assessed as fold […] in reporter activity at 100 uM measured after 14 hrs by luciferase reporter gene assay relative to control; assay type: cell-based; conditions: filed as agonist
[7] = target: T1, Nuclear receptor subfamily 2 group E member 1; assay: Stabilization of human recombinant TLX LBD assessed as change in melting temperature at 500 uM by DSF assay
[8] = target: T1, Nuclear receptor subfamily 2 group E member 1; assay: Agonist activity at full length TLX activating element expressed in human HEK293T cells coexpressing human full-length TLX/Gal4-VP 16 assessed as fold increase in reporter activity at 100 uM by luciferase reporter gene assay relative to control; assay type: cell-based; conditions: filed as agonist
[9] = target: T1, Nuclear receptor subfamily 2 group E member 1; assay: Inverse agonist activity at full length TLX activating element expressed in human HEK293T cells coexpressing human full-length TLX/Gal4-VP 16 assessed as fold […] in reporter activity at 100 uM by luciferase reporter gene assay relative to control; assay type: cell-based; conditions: filed as inverse agonist
[10] = target: T1, Nuclear receptor subfamily 2 group E member 1; assay: Inverse agonist activity at in human TLX LBD expressed in human HEK293T cells coexpressing Gal4-VP 16 assessed as fold increase in reporter activity at 100 uM measured after 14 hrs by luciferase reporter gene assay relative to control; assay type: cell-based; conditions: filed as inverse agonist
[11] = target: T1, Nuclear receptor subfamily 2 group E member 1; assay: Agonist activity at TAE expressed in human HEK293T cells coexpressing human full-length TLX/Gal4-VP 16 assessed as renilla luciferase reporter activity incubated for 14 hrs by Dual-glo luciferase
[12] = target: T1, Nuclear receptor subfamily 2 group E member 1; assay: Agonist activity at human TLX LBD expressed in human HEK293T cells coexpressing Gal4-VP 16 incubated for 14 hrs at 100 uM; assay type: cell-based
[13] = target: T1, Nuclear receptor subfamily 2 group E member 1; assay: Agonist activity at human TLX LBD expressed in human HEK293T cells coexpressing Gal4-VP 16 incubated for 14 hrs at 300 uM; assay type: cell-based
T98G [14] = assay: Effect on TLX regulated gene expression in human T98G cells assessed as decrease in TET3 mRNA expression at 50 uM after 8 hrs by qRT-PCR analysis; assay type: functional, cell-based
T98G [15] = assay: Effect on TLX regulated gene expression in human T98G cells assessed as induction of mRNA expression at 50 uM after 8 hrs by qRT-PCR analysis; assay type: functional, cell-based
T98G [16] = assay: Effect on TLX regulated gene expression in human T98G cells assessed as decrease in PTEN mRNA expression at 50 uM after 8 hrs by qRT-PCR analysis; assay type: functional, cell-based
T98G [17] = assay: Effect on TLX regulated gene expression in human T98G cells assessed as induction of SIRT1 mRNA expression at 50 uM after 8 hrs by qRT-PCR analysis; assay type: functional, cell-based
[18] = Effect on Gal4-VP16 plasmid transfected in human HEK293T cells assessed as reporter activity incubated for 14 hrs by luciferase assay; assay type: functional, HEK-293T
[19] = target: T1, Nuclear receptor subfamily 2 group E member 1; assay: Agonist activity at full length TLX activating element expressed in human HEK293T cells coexpressing human full-length TLX/Gal4-VP 16 assessed as decrease in reporter activity at 100 uM by luciferase reporter gene assay relative to control
[20] = target: T1, Nuclear receptor subfamily 2 group E member 1
Description: Binding affinity to TLX LBD expressed in His6-tagged Escherichia coli Rosetta assessed as binding constant measured after 300 sec at 200 mM by isothermal titration calorimetry

fold change (FC) [1]: 0.28
EC50 ([2]; read-out: EC50): 52 µM
SMILES: COC(CNC(C)C)COc1cccc2ccccc12 (centres undefined)

EC50 ([2]; hek293t): Not Active
SMILES: CC(C)NCC(O)c1ccc(NS(C)(=O)=O)cc1 (racemic) [SOTALOL]
Activity (T98G [3]): inactive
Activity (T98G [4]): Active
cell migration inhibition (active/not active call) (T98G [5]): inactive

fold change (FC) [1]: 0.2
EC50 ([2]; read-out: EC50): 47 µM
SMILES: CCCNCC(O)COc1ccccc1C(=O)CCc1ccccc1 (racemic) [PROPAFENONE]

fold change (FC) [6]: 0.17
ΔTm [7]: -0.5 °C
fold change (FC) [8]: 0.57
SMILES: O=c1[nH]nc(Cc2ccccc2)c2ccccc12

fold change (FC) [6]: 0.34
ΔTm [7]: -1.4 °C
fold change (FC) [8]: 0.41
SMILES: O=C(O)CCCc1ccc(-c2ccccc2)cc1

fold change (FC) [6]: 2.9
ΔTm ([7]; filed as modulator): 1.2 °C
fold change (FC) [9]: 1.8
SMILES: Nc1cnc2ccccc2n1

ΔTm ([7]; filed as modulator): 1.1 °C
fold change (FC) [10]: 3.3
fold change (FC) [9]: 1.47
SMILES: Cn1c(=O)[nH]c2[nH]cnc2c1=O

SMILES: NC1CCc2[nH]c3ccccc3c2C1 (centres undefined)
EC50 [11]: > 100 µM
fold change (FC) [1]: 0.5
fold change (FC) [6]: 0.45
ΔTm ([7]; filed as agonist): 2.4 °C
fold change (FC) [8]: 1.98
fold change (FC) [9]: 2.1
EC50 ([2]; read-out: EC50): 67 µM

Activity [12]: inactive
SMILES: OC(COc1cccc2ccccc12)CN1CCCCC1 (centres undefined)

fold change (FC) [1]: 0.4
EC50 ([2]; read-out: EC50): 40 µM
SMILES: CC(C)NC[C@@H](O)COc1cccc2ccccc12 [DEXPROPRANOLOL]

fold change (FC) [1]: 0.42
EC50 ([2]; read-out: EC50): 50 µM
SMILES: CC(C)NCCCOc1cccc2ccccc12

fold change (FC) [6]: 32
ΔTm [7]: 1.1 °C
fold change (FC) [8]: 0.68
SMILES: CCCCOc1cc(C(=O)NC)c2ccccc2n1

SMILES: c1ccc2c3c([nH]c2c1)CNCC3 [TRYPTOLINE]
EC50 [11]: > 100 µM
fold change (FC) [1]: 0.4
fold change (FC) [6]: 0.47
ΔTm ([7]; filed as agonist): 1.2 °C
fold change (FC) [8]: 2.15
fold change (FC) [9]: 2.2
EC50 ([2]; read-out: EC50): 74 µM

EC50 ([2]; read-out: EC50): > 100 µM
SMILES: CC(C)N(C)CC(O)COc1cccc2ccccc12 (centres undefined)

fold change (FC) [1]: 0.29
EC50 ([2]; read-out: EC50): 83 µM
SMILES: CC(C)OCC(O)COc1cccc2ccccc12 (centres undefined)

fold change (FC) [1]: 0.62
EC50 ([2]; read-out: EC50): 5 µM
SMILES: CN1CC(=O)N2[C@H](c3ccc4c(c3)OCO4)c3[nH]c4ccccc4c3C[C@@H]2C1=O

fold change (FC) [6]: 2.7
ΔTm ([7]; filed as modulator): 0.5 °C
fold change (FC) [10]: 2.7
fold change (FC) [9]: 1.33
SMILES: COc1ccc2[nH]c(SC)nc2c1

Activity [13]: inactive
SMILES: CC(C)NCC(O)COc1ccnc2ccccc12 (centres undefined)
Activity (T98G [3]): inactive
Activity (T98G [4]): Active
cell migration inhibition (active/not active call) (T98G [5]): inactive

fold change (FC) [6]: 0.44
ΔTm [7]: -3.2 °C
fold change (FC) [8]: 0.65
SMILES: Cc1cn(-c2cc(N)cc(C(F)(F)F)c2)cn1

fold change (FC) [6]: 0.47
ΔTm [7]: 0.6 °C
fold change (FC) [9]: 1.12
SMILES: O=C1Nc2ccccc2Nc2ccccc21

fold change (FC) [1]: 0.25
EC50 ([2]; read-out: EC50): 72 µM
SMILES: CC(C)NC[C@H](O)COc1cccc2ccccc12 [LEVOPROPRANOLOL]

EC50 ([2]; hek293t): Not Active
SMILES: CC(C)NCC(O)COc1ccc(CC(N)=O)cc1 (racemic) [ATENOLOL]
Activity (T98G [14]): inactive
Activity (T98G [3]): inactive
Activity (T98G [4]): Active
Activity (T98G [15]): inactive
cell migration inhibition (active/not active call) (T98G [5]): inactive
Activity (T98G [16]): inactive
Activity (T98G [17]): inactive

EC50 [11]: 37 µM
fold change (FC) [1]: 0.08
EC50 [19]: 32 µM
Kd [20]: 0.5 µM
EC50 ([2]; read-out: EC50): 32 µM
SMILES: CC(C)NCC(O)COc1cccc2ccccc12 (racemic) [PROPRANOLOL]
Activity [18]: 8%
Activity (T98G [14]): Active
Activity (T98G [3]): inactive
Activity (T98G [4]): Active
Activity (T98G [15]): Active
cell migration inhibition (active/not active call) (T98G [5]): Active
Activity (T98G [16]): Active
Activity (T98G [17]): Active

fold change (FC) [6]: 0.37
ΔTm [7]: -2.3 °C
fold change (FC) [8]: 0.57
SMILES: Clc1ccc(C(c2ccccc2)N2CCNCC2)cc1 (centres undefined)

fold change (FC) [6]: 0.46
ΔTm [7]: -0.3 °C
fold change (FC) [9]: 1.05
SMILES: CNC(=O)c1cc(Cl)c(N)cc1OC

SMILES: CC(=O)N1CCN(c2ccc(O)cc2)CC1
fold change (FC) [6]: 0.5
ΔTm [7]: 0.8 °C
fold change (FC) [8]: 0.86

EC50 [11]: 43 µM
fold change (FC) [1]: 0.07
fold change (FC) [6]: 0.27
ΔTm ([7]; filed as agonist): 1.5 °C
fold change (FC) [9]: 2.3
EC50 ([2]; read-out: EC50): 19.4 µM
SMILES: NCC(O)COc1cccc2ccccc12 (centres undefined)
